Results: US8648066B2 (Exelixis, Inc., priority 2009, dated 2014)

Target: mTOR/GbL/Raptor (mTORC1) (Homo sapiens, UniProt P42345)
Experiment: mTOR/GbL/Raptor (mTORC1) ELISA assay
Format: biochemical
Settings: phosphorylation of 4E-BP1; 0.2 nM mTORC1, 10 μM ATP; read-out: IC50 in this assay (mTORC1 ELISA)
In short: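 ELISA read-out: phospho-4E-BP1 captured on Ni-chelate plates and detected with anti-phospho antibody plus HRP-anti-IgG luminescence. The kinase step ran 120 min at ambient temperature with 0.2 nM human mTORC1, 10 µM ATP, 50 nM His-4E-BP1, 10 mM MnCl2, pH 7.2 HEPES.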

Structure (SMILES)	IC50
CNC(=O)Nc1ccc(-c2ccc3c(c2)CN(c2nc(C)nc4cc(OC)ccc24)CCO3)cc1 [Example 361, 1-methyl-3-(4-{4-[2-methyl-7-(methyloxy)quinazolin-4-yl]-2,3,4,5-tetrahydro-1,4-benzoxazepin-7-yl}phenyl)urea]	≥ 2000 nM
CNS(=O)(=O)c1cc(-c2ccc3c(c2)CN(c2ncnc(C)c2Cc2ccc(F)cc2)CCO3)cnc1N [Example 363, 2-amino-5-(4-{5-[(4-fluorophenyl)methyl]-6-methylpyrimidin-4-yl}-2,3,4,5-tetrahydro-1,4-benzoxazepin-7-yl)-N-methylpyridine-3-sulfonamide]	10 to 50 nM
CC(C)NS(=O)(=O)c1cc(-c2ccc3c(c2)CN(c2ncnc4c2CC(C)(C)CC4)CCO3)cnc1N [Example 364, 2-amino-5-[4-(6,6-dimethyl-5,6,7,8-tetrahydroquinazolin-4-yl)-2,3,4,5-tetrahydro-1,4-benzoxazepin-7-yl]-N-(1-methylethyl)pyridin-3-sulfonamide]	10 to 50 nM
CC1(C)CCc2ncnc(N3CCOc4ccc(-c5cnc(N)c(S(=O)(=O)NCC(F)(F)F)c5)cc4C3)c2C1 [Example 365, 2-amino-5-[4-(6,6-dimethyl-5,6,7,8-tetrahydroquinazolin-4-yl)-2,3,4,5-tetrahydro-1,4-benzoxazepin-7-yl]-N-(2,2,2-trifluoroethyl)pyridine-3-sulfonamide]	10 to 50 nM
CC1(C)CCc2ncnc(N3CCOc4ccc(-c5cnc(N)c(S(=O)(=O)NCCF)c5)cc4C3)c2C1 [Example 366, 2-amino-5-[4-(6,6-dimethyl-5,6,7,8-tetrahydroquinazolin-4-yl)-2,3,4,5-tetrahydro-1,4-benzoxazepin-7-yl]-N-(2-fluoroethyl)pyridine-3-sulfonamide]	10 to 50 nM
CC1(C)CCc2ncnc(N3CCOc4ccc(-c5cnc(N)c(S(=O)(=O)NC(C)(C)CO)c5)cc4C3)c2C1 [Example 367, 2-amino-5-[4-(6,6-dimethyl-5,6,7,8-tetrahydroquinazolin-4-yl)-2,3,4,5-tetrahydro-1,4-benzoxazepin-7-yl]-N-(2-hydroxy-1,1-dimethylethyl)pyridine-3-sulfonamide]	10 to 50 nM
CC(CO)NS(=O)(=O)c1cc(-c2ccc3c(c2)CN(c2ncnc4c2CC(C)(C)CC4)CCO3)cnc1N (centres unmarked) [Example 368, 2-amino-5-[4-(6,6-dimethyl-5,6,7,8-tetrahydroquinazolin-4-yl)-2,3,4,5-tetrahydro-1,4-benzoxazepin-7-yl]-N-(2-hydroxy-1-methylethyl)pyridine-3-sulfonamide]	10 to 50 nM
CC(C)(O)CNS(=O)(=O)c1cc(-c2ccc3c(c2)CN(c2ncnc4c2CC(C)(C)CC4)CCO3)cnc1N [Example 369, 2-amino-5-[4-(6,6-dimethyl-5,6,7,8-tetrahydroquinazolin-4-yl)-2,3,4,5-tetrahydro-1,4-benzoxazepin-7-yl]-N-(2-hydroxy-2-methylpropyl)pyridine-3-sulfonamide]	≤ 10 nM
CN(CCO)S(=O)(=O)c1cc(-c2ccc3c(c2)CN(c2ncnc4c2CC(C)(C)CC4)CCO3)cnc1N [Example 370, 2-amino-5-[4-(6,6-dimethyl-5,6,7,8-tetrahydroquinazolin-4-yl)-2,3,4,5-tetrahydro-1,4-benzoxazepin-7-yl]-N-(2-hydroxyethyl)-N-methylpyridine-3-sulfonamide]	10 to 50 nM
CC1(C)CCc2ncnc(N3CCOc4ccc(-c5cnc(N)c(S(=O)(=O)NCCO)c5)cc4C3)c2C1 [Example 371, 2-amino-5-[4-(6,6-dimethyl-5,6,7,8-tetrahydroquinazolin-4-yl)-2,3,4,5-tetrahydro-1,4-benzoxazepin-7-yl]-N-(2-hydroxyethyl)pyridine-3-sulfonamide]	≤ 10 nM
CC(O)CNS(=O)(=O)c1cc(-c2ccc3c(c2)CN(c2ncnc4c2CC(C)(C)CC4)CCO3)cnc1N (centres unmarked) [Example 372, 2-amino-5-[4-(6,6-dimethyl-5,6,7,8-tetrahydroquinazolin-4-yl)-2,3,4,5-tetrahydro-1,4-benzoxazepin-7-yl]-N-(2-hydroxypropyl)pyridine-2-sulfonamide]	10 to 50 nM
